Earlier results as cited in patent publication EP4659595A1, “NICOTINE-POLYMER COMPLEX COMPRISING MULTIPLE NICOTINE FORMS” (Nicoventures Trading Limited, priority 2024, dated 2025).

How the values were obtained:
[1] = fats, alcohols, water
[2] = when isolated; converts via isomerization into trans-bixin (β-bixin)
[3] = partition coefficient between octanol and water; source of values not stated

Row | Molecule | solubility [1] | chemical stability [2] | logP [3]
1 | CC(/C=C/C=C(C)/C=C/C(=O)O)=C\C=C\C=C(C)\C=C\C=C(C)\C=C\C(=O)O (stereo in doubt) [norbixin, (2E,4E,6E,8E,10E,12E,14E,16E,18E)-4,8,13,17-tetramethylicosa-2,4,6,8,10,12,14,16,18-nonaenedioic acid] | water soluble | – | –
2 | COC(=O)/C=C/C(C)=C\C=C\C(C)=C\C=C\C=C(C)\C=C\C=C(C)\C=C\C(=O)O [bixin, (2E,4E,6E,8E,10E,12E,14E,16Z,18E)-20-methoxy-4,8,13,17-tetramethyl-20-oxoicosa-2,4,6,8,10,12,14,16,18-nonaenoic acid] | soluble in fats and alcohols but insoluble in water | chemically unstable when isolated | –
3 | tocopherol succinate | – | – | 10.2
4 | isopropyl benzoic acid | – | – | 3.5
5 | ethyl benzoic acid | – | – | 2.9
6 | CC(C)[C@@H]1CC[C@@H](C)C[C@H]1OC(=O)CCC(=O)O [monomenthyl succinate] | – | – | 3
